Experimental data as given in the NIST ThermoML archive (doi:10.1016/j.jct.2016.08.038).
Numbers after ± are expanded uncertainties.

Legend:
[1] = for electrical conductivity: Frequency=0.001 MHz, Alternating current cell with electrodes; for electrical conductivity / speed of sound / kinematic viscosity / mass density / surface tension liquid-gas: Liquid; for speed of sound: Frequency=3 MHz, Sing-around technique in a fixed-path interferometer; for kinematic viscosity: Capillary tube (Ostwald / Ubbelohde) method; for mass density: Vibrating tube method; for surface tension liquid-gas: Drop volume
[2] = Molar enthalpy of transition or fusion; settings: DSC
[3] = molar heat capacity at constant pressure; settings: 101.33 kPa, Small sample (50 mg) DSC, Liquid
[4] = refractive index (Na D-line) (dimensionless); settings: 101.33 kPa, Standard Abbe refractometry, Liquid

CC[n+]1ccccc1.O=S(=O)([O-])C(F)(F)F [1-ethylpyridinium triflate]
[1]
Settings	electrical conductivity [S/m]	kinematic viscosity [m2/s]	mass density [kg/m3]	speed of sound [m/s]
293.15 K, 100 kPa	0.407 ± 0.008	–	–	1500.4 ± 2.7
293.15 K, 101.33 kPa	–	6.89e-05 ± 1.5e-06	1409.09 ± 1.1	–
295.65 K, 100 kPa	0.456 ± 0.009	–	–	1495 ± 2.8
295.65 K, 101.33 kPa	–	6.14e-05 ± 1.3e-06	1407.09 ± 1.1	–
298.15 K, 100 kPa	0.502 ± 0.01	–	–	1489.1 ± 2.8
298.15 K, 101.33 kPa	–	5.47e-05 ± 1.1e-06	1405.03 ± 1.1	–
300.65 K, 100 kPa	0.556 ± 0.011	–	–	1483.4 ± 2.8
300.65 K, 101.33 kPa	–	4.95e-05 ± 1e-06	1402.96 ± 1.1	–
303.15 K, 100 kPa	0.613 ± 0.012	–	1400.91 ± 1.1	1477.7 ± 2.8
303.15 K, 101.33 kPa	–	4.45e-05 ± 9.3e-07	1400.9 ± 1.1	–
303.15 K, 5000 kPa	–	–	1403.53 ± 1.2	–
303.15 K, 10000 kPa	–	–	1406.14 ± 1.2	–
303.15 K, 15000 kPa	–	–	1408.69 ± 1.2	–
303.15 K, 20000 kPa	–	–	1411.17 ± 1.3	–
303.15 K, 25000 kPa	–	–	1413.58 ± 1.4	–
303.15 K, 30000 kPa	–	–	1415.93 ± 1.4	–
303.15 K, 35000 kPa	–	–	1418.22 ± 1.5	–
303.15 K, 40000 kPa	–	–	1420.44 ± 1.5	–
305.65 K, 100 kPa	0.676 ± 0.014	–	–	1471.9 ± 2.8
305.65 K, 101.33 kPa	–	4.02e-05 ± 8.4e-07	1398.85 ± 1.1	–
308.15 K, 100 kPa	0.744 ± 0.015	–	–	1466.3 ± 2.7
308.15 K, 101.33 kPa	–	3.63e-05 ± 7.6e-07	1396.8 ± 1.1	–
310.65 K, 100 kPa	0.808 ± 0.016	–	–	1461.1 ± 2.8
310.65 K, 101.33 kPa	–	3.3e-05 ± 6.9e-07	1394.77 ± 1.1	–
313.15 K, 100 kPa	0.872 ± 0.017	–	–	1455 ± 2.7
313.15 K, 101.33 kPa	–	3.01e-05 ± 6.3e-07	1392.77 ± 1.1	–
315.65 K, 100 kPa	0.953 ± 0.019	–	–	1450 ± 2.7
315.65 K, 101.33 kPa	–	2.75e-05 ± 5.8e-07	1390.68 ± 1.1	–
318.15 K, 100 kPa	1.02 ± 0.021	–	–	1444 ± 2.8
318.15 K, 101.33 kPa	–	2.52e-05 ± 5.3e-07	1388.63 ± 1.1	–
320.65 K, 100 kPa	1.13 ± 0.023	–	–	1438.2 ± 2.6
320.65 K, 101.33 kPa	–	2.31e-05 ± 4.9e-07	1386.59 ± 1.1	–
323.15 K, 100 kPa	1.21 ± 0.024	–	–	1433.2 ± 2.6
323.15 K, 101.33 kPa	–	2.13e-05 ± 4.5e-07	1384.6 ± 1.1	–
325.65 K, 100 kPa	1.3 ± 0.026	–	–	1427.4 ± 2.8
325.65 K, 101.33 kPa	–	1.96e-05 ± 4.1e-07	1382.5 ± 1.1	–
328.15 K, 100 kPa	1.39 ± 0.028	–	–	1421.9 ± 2.8
328.15 K, 101.33 kPa	–	1.82e-05 ± 3.8e-07	1380.47 ± 1.1	–
330.65 K, 100 kPa	1.47 ± 0.029	–	–	1416.1 ± 2.7
330.65 K, 101.33 kPa	–	1.69e-05 ± 3.5e-07	1378.45 ± 1.1	–
333.15 K, 100 kPa	1.59 ± 0.032	–	–	1410.6 ± 2.7
333.15 K, 101.33 kPa	–	1.57e-05 ± 3.3e-07	1376.42 ± 1.1	–
335.65 K, 100 kPa	1.68 ± 0.034	–	–	1405.1 ± 2.7
335.65 K, 101.33 kPa	–	1.46e-05 ± 3.1e-07	1374.41 ± 1.1	–
338.15 K, 100 kPa	1.78 ± 0.036	–	–	1399.7 ± 2.7
338.15 K, 101.33 kPa	–	1.36e-05 ± 2.9e-07	1372.35 ± 1.1	–

Settings	Molar enthalpy of transition or fusion [kcal/mol]	Normal melting temperature [°C]	Triple point temperature [K]	molar heat capacity at constant pressure [J/K/mol]	refractive index	surface tension liquid-gas [mN/m]
[1], 293.15 K	–	–	–	–	–	42.48 ± 0.51
[1], 295.65 K	–	–	–	–	–	42.36 ± 0.51
[1], 298.15 K	–	–	–	–	–	42.26 ± 0.5
[1], 300.65 K	–	–	–	–	–	42.15 ± 0.5
[1], 303.15 K	–	–	–	–	–	42.08 ± 0.5
[1], 305.65 K	–	–	–	–	–	42.02 ± 0.5
[1], 308.15 K	–	–	–	–	–	41.93 ± 0.5
[1], 310.65 K	–	–	–	–	–	41.83 ± 0.5
[1], 313.15 K	–	–	–	–	–	41.71 ± 0.5
[1], 315.65 K	–	–	–	–	–	41.65 ± 0.5
[1], 318.15 K	–	–	–	–	–	41.55 ± 0.5
[1], 320.65 K	–	–	–	–	–	41.43 ± 0.49
[1], 323.15 K	–	–	–	–	–	41.31 ± 0.49
[1], 325.65 K	–	–	–	–	–	41.22 ± 0.49
[1], 328.15 K	–	–	–	–	–	41.16 ± 0.49
[1], 330.65 K	–	–	–	–	–	41.07 ± 0.49
[1], 333.15 K	–	–	–	–	–	40.95 ± 0.49
[1], 335.65 K	–	–	–	–	–	40.88 ± 0.49
[1], 338.15 K	–	–	–	–	–	40.76 ± 0.49
[1], Crystal 1, DTA	–	16 ± 1	–	–	–	–
[1], Crystal 2, DSC	–	–	260.4 ± 1.2	–	–	–
[2], Crystal 1	2.75 ± 0.0717	–	–	–	–	–
[2], Crystal 2	0.167 ± 0.0239	–	–	–	–	–
[3], 293.15 K	–	–	–	348.4 ± 12	–	–
[3], 295.65 K	–	–	–	350.2 ± 12	–	–
[3], 298.15 K	–	–	–	351.8 ± 12	–	–
[3], 300.65 K	–	–	–	353.6 ± 12	–	–
[3], 303.15 K	–	–	–	355.3 ± 12	–	–
[3], 305.65 K	–	–	–	357.1 ± 12	–	–
[3], 308.15 K	–	–	–	358.7 ± 12	–	–
[3], 310.65 K	–	–	–	360.5 ± 12	–	–
[3], 313.15 K	–	–	–	362.1 ± 12	–	–
[3], 315.65 K	–	–	–	363.8 ± 12	–	–
[3], 318.15 K	–	–	–	365.4 ± 12	–	–
[3], 320.65 K	–	–	–	367 ± 12	–	–
[3], 323.15 K	–	–	–	368.7 ± 12	–	–
[3], 325.65 K	–	–	–	370.3 ± 12	–	–
[3], 328.15 K	–	–	–	371.8 ± 12	–	–
[3], 330.65 K	–	–	–	373.5 ± 12	–	–
[3], 333.15 K	–	–	–	375.2 ± 12	–	–
[3], 335.65 K	–	–	–	376.9 ± 12	–	–
[3], 338.15 K	–	–	–	378.6 ± 13	–	–
[4], 293.15 K	–	–	–	–	1.46039 ± 0.00037	–
[4], 295.65 K	–	–	–	–	1.45969 ± 0.00037	–
[4], 298.15 K	–	–	–	–	1.45898 ± 0.00037	–
[4], 300.65 K	–	–	–	–	1.4583 ± 0.00037	–
[4], 303.15 K	–	–	–	–	1.45759 ± 0.00037	–
[4], 305.65 K	–	–	–	–	1.45689 ± 0.00037	–
[4], 308.15 K	–	–	–	–	1.45619 ± 0.00037	–
[4], 310.65 K	–	–	–	–	1.4555 ± 0.00037	–
[4], 313.15 K	–	–	–	–	1.45484 ± 0.00037	–
[4], 315.65 K	–	–	–	–	1.45415 ± 0.00037	–
[4], 318.15 K	–	–	–	–	1.45345 ± 0.00037	–
[4], 320.65 K	–	–	–	–	1.45276 ± 0.00037	–
[4], 323.15 K	–	–	–	–	1.45206 ± 0.00037	–
[4], 325.65 K	–	–	–	–	1.45134 ± 0.00037	–
[4], 328.15 K	–	–	–	–	1.45064 ± 0.00037	–
[4], 330.65 K	–	–	–	–	1.44995 ± 0.00037	–
[4], 333.15 K	–	–	–	–	1.44927 ± 0.00037	–
[4], 335.65 K	–	–	–	–	1.44859 ± 0.00037	–
[4], 338.15 K	–	–	–	–	1.44789 ± 0.00037	–
